Laboratory results taken from patent US20130225694A1, “COMPOSITIONS AND METHODS OF INHIBITING RETINAL DEGENERATION” (Oklahoma Medical Research Foundation, priority 2012, published 2013).
Read-outs that look alike come from different tables or passages of the source.

Columns and labels:
rhodopsin [1] = experiment: Rhodopsin regeneration after bleach in rats, IP nitrone; assay type: in vivo, rat; conditions: Rattus norvegicus; rats, 50 mg/kg IP, 2 h room light then 2.5 h dark adaptation
Protocol: FIG. 10 graphically illustrates the effects of three PBN analogs of rhodopsin regeneration. Rhodopsin content was measured as nmole/retina following the procedure as in Mandal et al. (J Biol. Chem. 2011. 286 (37):32491-501). After injection with PBN derivatives or vehicles (saline), rats were left in room light for 2 hours (light adapted or LA) and then moved to dark. At 2.5 hours dark adaptation (DA), retinas were harvested. DA-Control, Dark adapted (12 h) control retina without any treatment to show normal rhodopsin content.
Measurement of rhodopsin regeneration—To measure the effect of PBN on the rate of rhodopsin regeneration, dark-adapted rats were injected intraperitoneally with PBN (50 mg/kg) or PBS 0.5 hour prior to a 2 hour bleach in room light (˜400 lux). Immediately following the bleach (time=0 minutes), a group of PBN- and vehicle-treated rats were killed, and retinas were removed and snap frozen. The remaining rats were dark-adapted, and retinas were collected under dim red light at 45, 90, and 180 minutes after the bleach.
Rhodopsin measurements were performed as described previously (2,36) with slight modification. Briefly, under dim red light, each retina was homogenized in 450 μl of buffer containing 10 mM Tris-HCl (pH 7.4), 150 mM NaCl, 1 mM EDTA, 2% (w/v) octylglucoside, and 50 mM hydroxylamine. Homogenates were centrifuged at 16,000 g, and soluble lysates were scanned from 270-800 nm in a spectrophotometer (Ultrospec 3000 UV/Vis Spectrophotometer, GE Healthcare, Piscataway, N.J.). Samples were then bleached under room light for 10 minutes and scanned again. The difference spectra at 500 nm between pre- and post-bleached samples were used to determine rhodopsin content using a molar extinction coefficient of […] (37). The values were normalized to the total lysate volume, and data are presented as rhodopsin content/retina.

RPE65 isomerohydrolase = molecular target: T1, RPE65 isomerohydrolase (Bos taurus, UniProt Q28175); experiment: In vitro RPE65 isomerohydrolase assay with bovine RPE microsomes (Example 3); assay type: biochemical
T1 construct: Bovine RPE microsomes were used as a source of the RPE65 protein; from tissue; host or cells: bovine RPE microsomes
T1 sequence (Q28175 whole entry): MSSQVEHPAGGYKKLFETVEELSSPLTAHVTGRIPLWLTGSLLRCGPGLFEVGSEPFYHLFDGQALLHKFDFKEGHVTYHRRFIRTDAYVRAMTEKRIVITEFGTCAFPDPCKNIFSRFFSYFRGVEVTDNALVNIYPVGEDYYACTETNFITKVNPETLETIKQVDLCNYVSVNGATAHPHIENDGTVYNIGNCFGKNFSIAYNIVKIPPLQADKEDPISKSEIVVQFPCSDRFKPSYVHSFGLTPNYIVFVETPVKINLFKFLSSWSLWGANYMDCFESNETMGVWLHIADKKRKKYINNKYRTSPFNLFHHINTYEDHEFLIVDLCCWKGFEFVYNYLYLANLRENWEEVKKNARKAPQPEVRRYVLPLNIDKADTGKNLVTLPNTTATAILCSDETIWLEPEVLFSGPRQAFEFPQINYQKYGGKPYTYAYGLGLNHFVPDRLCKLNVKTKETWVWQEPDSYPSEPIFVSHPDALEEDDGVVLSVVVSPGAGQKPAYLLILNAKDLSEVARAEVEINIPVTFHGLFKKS
Description: In this Example, the effect of several PBN analogs on RPE65 isomerohydrolase activity was investigated in an in vitro assay. The chemical structures of the PBN analogs utilized are described herein above. Bovine RPE microsomes were used as a source of the RPE65 protein and all-trans-[^3H] retinol was a substrate for the isomerohydrolase assay. The produced 11-cis-[^3H] retinol was quantified by normal phase HPLC with flow scintillation analyzer. The inhibition of isomerohydrolase activity was dependent on the PBN analog's concentration.
FIG. 9 also illustrates the calculation of IC50 values for the two difluoro-PBN analogs. IC50 values are the concentration of the inhibitor that inhibits 50% of the enzymatic activity. Therefore, the smaller the IC50 value, the better the drug.

Rat Retina = experiment: Light-induced retinal degeneration in rats, systemic (IP) nitrone; ERG and ONL histology
Protocol: Consistent with previous publications (1-2,5), a dose of 50 mg/kg PBN and S-PBN dissolved in saline was chosen for intraperitoneal injection in the rats in the treatment group. An equal volume of saline was injected into control rats.
A light-stress paradigm of 2,700 lux for 6 hours was used to test the effect of PBN at different time points before (0.5 hour, 3 hours, 6 hours, 12 hours, 16 hours, and 24 hours) or after (0.5 hour and 3 hours) light exposure. The effect of S-PBN was tested using the same dose and protocol of PBN at 0.5 hours before light exposure.
Electroretinography—After light exposure, rats were returned to their dim cyclic light (5-10 lux) environment for 7 days before ERG recordings were performed. Flash ERGs were recorded with the Diagnosys Espion E2 ERG System (Diagnosys, LLC, Lowell, Mass.). Rats were maintained in total darkness overnight and prepared for ERG recording under dim red light. They were anesthetized with ketamine (120 mg/kg body weight) and xylazine (6 mg/kg body weight) intramuscularly (IM). One drop of 10% (v/v) phenylephrine was applied to the cornea to dilate the pupil, and one drop of 0.5% (v/v) proparacaine HCl was applied for local anesthesia. Rats were kept on a heating pad at 37° C. during recordings. A gold electrode was placed on the cornea, a reference electrode was positioned in the mouth, and a ground electrode was placed on the foot; rats were then placed inside a Ganzfeld illuminating sphere. Responses were differentially amplified, averaged, and stored. For the assessment of rod photoreceptor function (scotopic ERG), five strobe flash stimuli were presented at flash intensities at −2.3, −1.3, 0.7, and 2.7 log cd·s/m^2. The amplitude of the a-wave was measured from the pre-stimulus baseline to the a-wave trough. The amplitude of the b-wave was measured from the trough of the a-wave to the peak of the b-wave. For the evaluation of cone function (photopic ERG), a strobe flash stimulus (3.3 log cd·s/m^2) was presented to dilated, light-adapted (5 minutes at 1.7 log cd·s/m^2) rats. The amplitude of the cone b-wave was measured from the trough of the a-wave to the peak of the b-wave.
Histology—After ERG recordings, rats were killed by carbon dioxide asphyxiation for light microscopic evaluation of retinal structure. Immediately after death, eyes were excised, placed in fixative (4% (w/v) paraformaldehyde, 2% (v/v) trichloroacetic acid, 20% (v/v) isopropyl alcohol, 2% (v/v) zinc chloride, and 72% (v/v) distilled water), and embedded in paraffin. Sections of 5 μm were cut along the vertical meridian through the optic nerve and stained with hematoxylin and eosin (H&E).
The PBN derivatives were injected intraperitoneally (IP) into albino SD rats at 50 mg/kg body weight at 0.5 hours before the start of light-damage exposure at 2,700 lux for 6 hours. After the exposure, the rats were moved to their dim cyclic room to recover for a week. Retinal damage/protection was assessed by functional analysis by ERG and structural analysis of histological sections. Dark adapted (12 hour) and Light adapted (for 2 hour) retinas were utilized as controls.

rhodopsin [2] = experiment: Rhodopsin regeneration after topical eye drops in mice; assay type: in vivo, Balb/c mice
Protocol: Panel A: Application scheme and harvesting of the eye. 3 h group received 2 applications and 6 h group received 3 applications. Panel B: Rhodopsin content was measured as pmole/eye. In 1 h in the dark, untreated eyes (NT-LA 1 h DA, no treatment-light adapted followed by 1 hour dark adaptation) and vehicle-treated eyes recovered 75-80% rhodopsin [dark-adapted (DA) control is 100%], whereas 3 h PBN recovered only 43% and 6 h PBN only 29%. (***P<0.0001 compared to vehicle, n=8; ##p<0.005 between 3 h and 6 h group, n=8).
An eye drop formulation was used with various absorption enhancers for topical application of PBN to mouse eyes. […] One hour dark adaptation followed by light causes 75-80% recovery of bleachable rhodopsin in the Balb/c mice (FIG. 18B, NT-LA 1 h DA). The eye drop without PBN (vehicle) had no effect on rhodopsin regeneration (FIG. 18B, vehicle).
Eye drop formulations were prepared as described in Example 7 and contained 5% or 10% of a PBN derivative. The eye drop formulations were applied to Balb/c mice by the 6 h group application scheme shown in FIG. 18A, in which the eye drops were applied at 6, 3, and 0 h before dark adaptation. The eye drops were applied to completely light-adapted mouse eyes, and the mice were then moved to the dark for 1 h to allow the regeneration of bleachable rhodopsin. One hour dark adaptation followed by light causes […] recovery of bleachable rhodopsin in untreated mice (00, No Treatment). The eye drop without any nitrones (vehicle) had no effect on rhodopsin regeneration (000, vehicle).

[3] = 50 mg/kg IP 0.5 h before 2,700 lux 6 h, ERG flash 4.0 cd·sec/m^2 (mostly rod function)
[4] = 50 mg/kg IP 0.5 h before 2,700 lux 6 h, ERG flash 400.0 cd·sec/m^2 (rod and cone function)
[5] = 50 mg/kg IP 0.5 h before 2,700 lux 6 h, NLD = 100, Saline LD = 0
[6] = 50 mg/kg IP 0.5 h before 2,700 lux 6 h, histology

`Cc1ccc(/C=[N+](\[O-])C(C)(C)C)cc1` [Compound 4, 4-Methylphenyl t-butyl nitrone] was tested, and the inhibition at 50 mg/kg (rhodopsin [1]) was 54%, the IC50 (RPE65 isomerohydrolase; apparent IC50, bovine RPE microsomes, all-trans-[3H] retinol substrate (Table 1), read-out: IC50 Values for the Inhibition of RPE65 Isomerohydrolase Reaction) was 100 µM and the IC50 (RPE65 isomerohydrolase; in vitro RPE65 isomerohydrolase IC50 values repeated in Table 7, read-out: IC50) was 100 µM. For the same molecule, the “A-Wave value at 4 cd·sec/m^2” value (Rat Retina; [3]) was 126.4, the “B-Wave value at 4 cd·sec/m^2” value (Rat Retina; [3]) was 369.9 and the “A-Wave value at 400 cd·sec/m^2” value (Rat Retina; [4]) was 191.3. For the same molecule, the “B-Wave value at 400 cd·sec/m^2” value (Rat Retina; [4]) was 443.9, the “% Protection (A-Wave at 4 cd·sec/m^2)” value (Rat Retina; [5]) was 65.9% and the “% Protection (A-Wave at 400 cd·sec/m^2)” value (Rat Retina; [5]) was 63.6%. For the same molecule, the “% Protection (B-Wave at 4 cd·sec/m^2)” value (Rat Retina; [5]) was 48.1%, the “% Protection (B-Wave at 400 cd·sec/m^2)” value (Rat Retina; [5]) was 54.7% and the “ONL Thickness (μm) Inferior retina” value (Rat Retina; [6]) was 36.2 ± 1.0 μm. The “ONL Thickness (μm) Superior retina” value (Rat Retina; [6]) was 35.2 ± 1.2 μm, the “protection of retinal function (ERG A- and B-wave)” value (Rat Retina; 50 mg/kg IP, FIGS. 11-12) was “protected retinal function significantly” and the “protective effect on retinal photoreceptors compared with PBN” value (Rat Retina; 50 mg/kg IP, ONL histology (FIGS. 14-16)) was “slightly lower than that observed for PBN”. The “% Protection (ONL, Inferior retina)” value (Rat Retina; NLD = 100, Saline LD = 0) was 79.7%, the “% Protection (ONL, Superior retina)” value (Rat Retina; NLD = 100, Saline LD = 0) was 79.1% and the “% of Rhodopsin recovery” value (rhodopsin [2]; 5% in eye drop at 6, 3 and 0 h before dark adaptation, LA + 1 h DA, DA control = 100) was 32.54%. The “inhibition of rhodopsin regeneration as eye drop” value (rhodopsin [2]; eye drop formulation, summary of Table 7) was “more effective in inhibiting rhodopsin regeneration than PBN”.
